Assay results as given in patent publication US20090191253A2 (Creabilis Therapeutics S.P.A., priority 2005, published 2009).

Experiments:
[1] = molecular target: T1, MET (Homo sapiens, UniProt P08581); experiment: Kinase inhibition profiling MET (ELISA); assay type: biochemical; also: ATP 20 µM
T1 construct: made in house; host or cells: baculovirus expression system
Procedure: (§1) Each test compound was weighed and dissolved in DMSO to make 1 mM stock solution. The stock solution was diluted with DMSO to achieve 20 μM. The compound solution was diluted with the assay buffer to achieve 0.8 μM.

[2] = molecular target: T2, FMS(CSFR) (Homo sapiens, UniProt P07333); experiment: Kinase inhibition profiling FMS(CSFR) (ELISA); assay type: biochemical
T2 construct: Cytoplasmic domain of human FMS [538-972 amino; made in house; host or cells: baculovirus expression system
Procedure: as §1

[3] = molecular target: T3, ARG (Homo sapiens, UniProt P42684); experiment: Kinase inhibition profiling ARG (ELISA); assay type: biochemical; also: ATP 5 µM
T3 construct: made in house; host or cells: baculovirus expression system
Procedure: as §1

[4] = molecular target: T4, JAK3 (Homo sapiens, UniProt P52333); experiment: Kinase inhibition profiling JAK3 (ELISA); assay type: biochemical; also: ATP 5 µM
T4 construct: Kinase domain (KD) of human JAK3 [795-1124 amino; made in house; host or cells: baculovirus expression system
Procedure: as §1

[5] = molecular target: T5, ABL (Homo sapiens, UniProt P00519); experiment: Kinase inhibition profiling ABL (ELISA); assay type: biochemical
T5 construct: made in house; host or cells: baculovirus expression system
Procedure: as §1

[6] = molecular target: T6, FGFR2 (Homo sapiens, UniProt P21802); experiment: Kinase inhibition profiling FGFR2 (ELISA); assay type: biochemical; also: ATP 20 µM
T6 construct: Cytoplasmic domain of human FGFR2 [399-821 amino; made in house; host or cells: baculovirus expression system
Procedure: as §1

[7] = molecular target: T7, PKCε (Homo sapiens, UniProt Q02156); experiment: Kinase inhibition profiling PKCε (IMAP); assay type: biochemical
T7 construct: made in house; host or cells: baculovirus expression system
Procedure: as §1

[8] = molecular target: T8, TrkB (Homo sapiens, UniProt Q16620); experiment: Kinase inhibition profiling TrkB (ELISA); assay type: biochemical
T8 construct: Cytoplasmic domain of human TRKB [456-822 amino; made in house; host or cells: baculovirus expression system
Procedure: In particular, the target kinases were Tyrosine kinases and Serine/Threonine kinases.
as §1

[9] = molecular target: T9, PKCα (Homo sapiens, UniProt P17252); experiment: Kinase inhibition profiling PKCα (IMAP); assay type: biochemical
T9 construct: made in house; host or cells: baculovirus expression system
Procedure: as §1

[10] = molecular target: T10, PKCγ (Homo sapiens, UniProt P05129); experiment: Kinase inhibition profiling PKCγ (IMAP); assay type: biochemical
T10 construct: made in house; host or cells: baculovirus expression system
Procedure: as §1

[11] = molecular target: T11, TYK2 (Homo sapiens, UniProt P29597); experiment: Kinase inhibition profiling TYK2 (ELISA); assay type: biochemical
T11 construct: Kinase domain (KD) of human TYK2 [871-1187 amino; made in house; host or cells: baculovirus expression system
Procedure: as §1

[12] = molecular target: T12, EphB4 (Homo sapiens, UniProt P54760); experiment: Kinase inhibition profiling EphB4 (ELISA); assay type: biochemical
T12 construct: Cytoplasmic domain of human EphB4 [577-987 amino; made in house; host or cells: baculovirus expression system
Procedure: as §1

[13] = system: bovine aorta smooth muscle cells (BASMC); experiment: Chemotaxis assay, HMGB1-induced migration (modified Boyden chambers); assay type: cell-based; settings: K-252a 3, 10, 30, 100 nM; HMGB-1 25 ng/ml; overnight migration
Procedure: Chemotaxis assays were performed using a well known and validated protocol (1). Modified Boyden chambers were used with filters having 5-8 μm pore size and treated with collagen I (100 μg/ml in 0.5 M acetic acid) and fibronectin (10 μg/ml, Roche). BASMC (bovine aorta smooth muscle cells) were cultured in serum-free DMEM and a sample of 20,000-40,000 cells was added to the upper well of a Boyden chamber. […] Overnight cell migration was allowed at 37+/−0.5° C., then cells were scraped off and filters were fixed in methanol and stained in a solution of 10% crystal violet in 20% methanol. All experiments were performed at least twice in triplicate. […] Random cell migration, i.e. migration in the absence of chemoattractant, was given the arbitrary value of 100%. Statistical analysis was performed using Student's t test for pairwise comparisons of treatment, or an ANOVA model for the evaluation of treatments with increasing concentrations of a reagent.

[14] = molecular target: T13, ALK (Homo sapiens, UniProt Q9UM73); experiment: Kinase inhibition profiling ALK (ELISA); assay type: biochemical
T13 construct: Cytoplasmic domain of human ALK [1089-1620; His (N, cleaved yes); made in house; host or cells: baculovirus expression system
Procedure: as §1

[15] = molecular target: T14, p38α (Homo sapiens, UniProt Q16539); experiment: Kinase inhibition profiling p38α (IMAP); assay type: biochemical
T14 construct: GST (N); made in house; host or cells: E. coli
Procedure: as §1

[16] = molecular target: T15, CDK2/cyclinA (Homo sapiens, UniProt P24941); experiment: Kinase inhibition profiling CDK2/cyclinA (IMAP); assay type: biochemical
T15 construct: His (N); made in house; host or cells: baculovirus expression system
Procedure: as §1

[17] = molecular target: T16, IKKβ (Homo sapiens, UniProt O14920); experiment: Kinase inhibition profiling IKKβ (IMAP); assay type: biochemical
T16 construct: Human IKKβ with 662 amino acids were expressed; His (N); made in house; host or cells: insect cells
T16 sequence (O14920 1-662 limits assumed): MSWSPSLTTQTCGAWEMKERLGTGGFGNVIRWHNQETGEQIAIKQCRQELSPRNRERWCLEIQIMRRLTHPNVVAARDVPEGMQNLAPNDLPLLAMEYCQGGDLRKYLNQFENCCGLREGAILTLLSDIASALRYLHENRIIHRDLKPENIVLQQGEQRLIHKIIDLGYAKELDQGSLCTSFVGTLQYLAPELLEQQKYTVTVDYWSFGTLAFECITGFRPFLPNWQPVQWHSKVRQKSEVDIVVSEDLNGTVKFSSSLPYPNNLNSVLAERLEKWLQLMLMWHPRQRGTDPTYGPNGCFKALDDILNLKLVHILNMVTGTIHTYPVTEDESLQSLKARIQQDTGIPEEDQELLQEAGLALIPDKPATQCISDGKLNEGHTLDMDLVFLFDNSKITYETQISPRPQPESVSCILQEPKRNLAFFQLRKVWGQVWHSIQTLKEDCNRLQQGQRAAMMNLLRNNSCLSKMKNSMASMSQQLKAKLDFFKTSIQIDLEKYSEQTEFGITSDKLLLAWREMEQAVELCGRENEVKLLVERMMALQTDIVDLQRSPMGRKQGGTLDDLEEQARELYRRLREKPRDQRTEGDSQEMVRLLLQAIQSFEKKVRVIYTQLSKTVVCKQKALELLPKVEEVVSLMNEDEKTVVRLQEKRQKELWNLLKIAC
Procedure: as §1

T13 sequence (Q9UM73 1089-1620): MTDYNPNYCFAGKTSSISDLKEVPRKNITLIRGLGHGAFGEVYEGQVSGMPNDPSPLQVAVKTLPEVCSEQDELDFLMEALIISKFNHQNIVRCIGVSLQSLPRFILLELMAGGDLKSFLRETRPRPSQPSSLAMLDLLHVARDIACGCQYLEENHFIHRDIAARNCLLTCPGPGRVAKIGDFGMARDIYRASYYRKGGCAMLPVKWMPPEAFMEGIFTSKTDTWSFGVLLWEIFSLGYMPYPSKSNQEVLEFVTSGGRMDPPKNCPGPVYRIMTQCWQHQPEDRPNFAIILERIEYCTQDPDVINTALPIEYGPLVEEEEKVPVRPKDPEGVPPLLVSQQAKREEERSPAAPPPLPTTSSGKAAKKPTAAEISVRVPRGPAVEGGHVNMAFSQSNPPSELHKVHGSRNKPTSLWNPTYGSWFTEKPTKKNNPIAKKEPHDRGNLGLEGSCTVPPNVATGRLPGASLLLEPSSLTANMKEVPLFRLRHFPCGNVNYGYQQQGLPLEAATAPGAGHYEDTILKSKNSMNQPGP
T3 sequence (P42684 2-1182): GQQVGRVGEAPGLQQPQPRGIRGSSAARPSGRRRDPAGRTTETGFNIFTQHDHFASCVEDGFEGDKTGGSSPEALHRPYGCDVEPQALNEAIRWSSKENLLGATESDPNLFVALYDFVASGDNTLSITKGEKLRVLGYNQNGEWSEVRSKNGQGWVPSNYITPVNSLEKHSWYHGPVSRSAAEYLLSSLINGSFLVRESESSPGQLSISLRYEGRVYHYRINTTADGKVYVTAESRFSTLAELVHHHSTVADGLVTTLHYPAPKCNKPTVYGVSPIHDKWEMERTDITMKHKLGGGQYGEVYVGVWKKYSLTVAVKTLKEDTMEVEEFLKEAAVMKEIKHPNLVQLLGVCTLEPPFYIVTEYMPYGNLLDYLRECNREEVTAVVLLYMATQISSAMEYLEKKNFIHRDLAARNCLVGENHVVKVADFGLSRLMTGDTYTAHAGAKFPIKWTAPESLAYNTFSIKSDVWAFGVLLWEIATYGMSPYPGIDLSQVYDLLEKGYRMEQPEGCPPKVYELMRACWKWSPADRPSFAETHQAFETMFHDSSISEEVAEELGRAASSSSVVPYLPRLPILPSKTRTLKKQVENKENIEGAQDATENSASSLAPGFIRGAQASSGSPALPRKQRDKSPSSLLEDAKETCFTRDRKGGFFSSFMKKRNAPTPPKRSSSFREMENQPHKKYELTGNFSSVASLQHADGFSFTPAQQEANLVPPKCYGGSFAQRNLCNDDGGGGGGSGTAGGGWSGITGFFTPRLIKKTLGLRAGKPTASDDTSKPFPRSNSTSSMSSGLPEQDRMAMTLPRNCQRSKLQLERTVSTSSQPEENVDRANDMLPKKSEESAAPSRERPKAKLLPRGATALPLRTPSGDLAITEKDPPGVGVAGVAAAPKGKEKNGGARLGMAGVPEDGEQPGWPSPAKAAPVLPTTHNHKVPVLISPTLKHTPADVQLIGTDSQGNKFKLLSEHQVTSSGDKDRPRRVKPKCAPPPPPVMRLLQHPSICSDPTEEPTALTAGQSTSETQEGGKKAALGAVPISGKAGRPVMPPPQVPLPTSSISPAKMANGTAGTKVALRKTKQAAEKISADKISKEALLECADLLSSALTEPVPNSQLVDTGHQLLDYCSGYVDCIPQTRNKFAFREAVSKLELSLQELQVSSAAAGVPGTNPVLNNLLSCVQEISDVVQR
T8 sequence (Q16620 456-822): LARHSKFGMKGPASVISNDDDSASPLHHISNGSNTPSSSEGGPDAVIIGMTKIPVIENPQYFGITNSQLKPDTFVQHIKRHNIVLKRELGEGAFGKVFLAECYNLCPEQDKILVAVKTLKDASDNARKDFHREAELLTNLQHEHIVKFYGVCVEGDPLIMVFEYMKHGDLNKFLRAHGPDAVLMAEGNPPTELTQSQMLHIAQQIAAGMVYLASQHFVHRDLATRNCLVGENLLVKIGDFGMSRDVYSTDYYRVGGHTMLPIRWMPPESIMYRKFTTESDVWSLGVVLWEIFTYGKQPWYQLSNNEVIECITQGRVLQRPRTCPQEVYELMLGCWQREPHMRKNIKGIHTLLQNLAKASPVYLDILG
T11 sequence (P29597 871-1187): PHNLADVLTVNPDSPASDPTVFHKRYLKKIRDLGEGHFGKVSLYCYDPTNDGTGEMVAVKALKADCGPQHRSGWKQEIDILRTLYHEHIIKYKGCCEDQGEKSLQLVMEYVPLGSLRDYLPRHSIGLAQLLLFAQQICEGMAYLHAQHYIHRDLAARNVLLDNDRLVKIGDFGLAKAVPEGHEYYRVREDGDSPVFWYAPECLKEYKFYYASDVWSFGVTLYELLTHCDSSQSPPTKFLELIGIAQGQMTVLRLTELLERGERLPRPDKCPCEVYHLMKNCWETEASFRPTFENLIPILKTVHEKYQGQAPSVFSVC
T12 sequence (P54760 577-987): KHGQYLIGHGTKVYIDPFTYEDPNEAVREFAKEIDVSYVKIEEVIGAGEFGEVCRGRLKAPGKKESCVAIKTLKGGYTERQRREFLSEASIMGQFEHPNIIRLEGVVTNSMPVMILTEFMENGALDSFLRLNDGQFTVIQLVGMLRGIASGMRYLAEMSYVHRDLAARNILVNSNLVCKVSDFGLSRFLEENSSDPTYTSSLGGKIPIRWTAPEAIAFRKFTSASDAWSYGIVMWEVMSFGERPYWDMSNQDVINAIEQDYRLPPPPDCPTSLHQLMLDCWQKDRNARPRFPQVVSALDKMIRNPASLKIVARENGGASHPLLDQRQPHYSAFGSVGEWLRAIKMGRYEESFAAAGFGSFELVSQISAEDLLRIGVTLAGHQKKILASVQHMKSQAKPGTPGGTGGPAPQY
T1 sequence (P08581 956-1390): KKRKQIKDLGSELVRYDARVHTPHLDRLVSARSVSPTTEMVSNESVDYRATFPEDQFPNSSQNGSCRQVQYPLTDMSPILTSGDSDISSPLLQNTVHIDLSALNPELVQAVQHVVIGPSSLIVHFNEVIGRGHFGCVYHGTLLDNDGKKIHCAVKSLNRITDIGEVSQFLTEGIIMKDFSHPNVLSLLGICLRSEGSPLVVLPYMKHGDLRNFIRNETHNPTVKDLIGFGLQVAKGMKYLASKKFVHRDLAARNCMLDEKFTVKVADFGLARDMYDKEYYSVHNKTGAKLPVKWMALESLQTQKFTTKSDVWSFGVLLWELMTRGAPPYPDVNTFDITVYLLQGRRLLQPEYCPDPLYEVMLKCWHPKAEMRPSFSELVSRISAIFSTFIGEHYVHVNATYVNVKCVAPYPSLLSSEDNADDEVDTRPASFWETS
T2 sequence (P07333 538-972): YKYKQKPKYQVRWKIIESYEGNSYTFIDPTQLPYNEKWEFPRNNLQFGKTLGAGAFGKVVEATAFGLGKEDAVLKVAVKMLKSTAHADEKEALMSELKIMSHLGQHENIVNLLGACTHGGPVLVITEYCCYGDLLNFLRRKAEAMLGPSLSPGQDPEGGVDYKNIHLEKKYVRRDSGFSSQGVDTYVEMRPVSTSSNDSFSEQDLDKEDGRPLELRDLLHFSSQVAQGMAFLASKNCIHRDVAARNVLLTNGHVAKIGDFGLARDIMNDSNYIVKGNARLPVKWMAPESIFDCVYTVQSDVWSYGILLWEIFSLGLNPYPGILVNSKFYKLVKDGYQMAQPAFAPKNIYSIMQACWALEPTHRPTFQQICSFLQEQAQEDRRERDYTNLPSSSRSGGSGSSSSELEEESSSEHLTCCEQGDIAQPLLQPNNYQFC

## COC(=O)[C@]1(O)CC2O[C@@]1(C)n1c3ccccc3c3c4c(c5c6ccccc6n2c5c31)C(=O)NC4 [K-252a]
[1]
  inhibition at 0.2 µM: 83.2%
[2]
  inhibition at 0.2 µM: 55.7%
[3]
  inhibition at 0.2 µM: 0.1%
[4]
  inhibition at 0.2 µM: 100%
[5]
  inhibition at 0.2 µM: -14.2%
[6]
  inhibition at 0.2 µM: 67.2%
[7]
  inhibition at 0.2 µM: 60.9%
[8]
  inhibition at 0.2 µM: 98.2%
[9]
  inhibition at 0.2 µM: 64.4%
[10]
  inhibition at 0.2 µM: 53.3%
[11]
  inhibition at 0.2 µM: 98.1%
[12]
  inhibition at 0.2 µM: 13.3%
[13]
  HMGB1-induced BASMC cell migration: actively and concentration-dependently (in a nanomolar range) antagonizes HMGB1-induced BASMC cell migration
[14]
  inhibition at 0.2 µM: 69.5%
[15]
  inhibition at 0.2 µM: -1.5%
[16]
  inhibition at 0.2 µM: 75.5%
[17]
  inhibition at 0.2 µM: 2.7%
